Assay [1] has as its target T1, Prolyl endopeptidase FAP (Homo sapiens, UniProt Q12884).
T1 sequence (Q12884 whole entry): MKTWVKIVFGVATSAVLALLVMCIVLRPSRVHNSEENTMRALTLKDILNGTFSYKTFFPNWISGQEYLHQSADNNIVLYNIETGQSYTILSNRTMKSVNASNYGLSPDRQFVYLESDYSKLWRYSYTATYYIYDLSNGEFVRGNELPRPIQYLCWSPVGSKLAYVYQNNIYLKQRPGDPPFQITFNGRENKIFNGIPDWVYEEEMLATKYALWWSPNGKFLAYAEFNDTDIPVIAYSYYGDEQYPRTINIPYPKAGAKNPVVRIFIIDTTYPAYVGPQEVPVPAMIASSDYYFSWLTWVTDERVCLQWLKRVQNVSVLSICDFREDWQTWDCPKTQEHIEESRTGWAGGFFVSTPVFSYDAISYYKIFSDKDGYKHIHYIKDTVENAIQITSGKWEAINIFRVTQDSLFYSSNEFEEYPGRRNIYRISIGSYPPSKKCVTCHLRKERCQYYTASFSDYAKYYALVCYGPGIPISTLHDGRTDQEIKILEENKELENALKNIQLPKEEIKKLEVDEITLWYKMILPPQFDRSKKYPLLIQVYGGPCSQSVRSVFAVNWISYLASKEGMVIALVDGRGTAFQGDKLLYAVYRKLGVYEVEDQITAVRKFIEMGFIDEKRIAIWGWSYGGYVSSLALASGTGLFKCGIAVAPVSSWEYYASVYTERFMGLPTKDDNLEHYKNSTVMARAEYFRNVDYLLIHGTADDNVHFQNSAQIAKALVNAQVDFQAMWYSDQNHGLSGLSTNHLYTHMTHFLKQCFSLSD
Kind of assay: Inhibition of FAP (unknown origin) using AMC substrate by fluorometric assay.

Assay [2] has as its target Prolyl endopeptidase FAP (Homo sapiens) (UniProt Q12884). Kind of assay: Inhibition of FAP (unknown origin) at 1 uM TR-FRET assay relative to control. On the technique in general: TR-FRET usually uses a lanthanide donor and a delayed reading to cut background.
Assay [3] addresses T2, Prolyl endopeptidase (Homo sapiens, UniProt P48147).
T2 sequence (P48147 whole entry): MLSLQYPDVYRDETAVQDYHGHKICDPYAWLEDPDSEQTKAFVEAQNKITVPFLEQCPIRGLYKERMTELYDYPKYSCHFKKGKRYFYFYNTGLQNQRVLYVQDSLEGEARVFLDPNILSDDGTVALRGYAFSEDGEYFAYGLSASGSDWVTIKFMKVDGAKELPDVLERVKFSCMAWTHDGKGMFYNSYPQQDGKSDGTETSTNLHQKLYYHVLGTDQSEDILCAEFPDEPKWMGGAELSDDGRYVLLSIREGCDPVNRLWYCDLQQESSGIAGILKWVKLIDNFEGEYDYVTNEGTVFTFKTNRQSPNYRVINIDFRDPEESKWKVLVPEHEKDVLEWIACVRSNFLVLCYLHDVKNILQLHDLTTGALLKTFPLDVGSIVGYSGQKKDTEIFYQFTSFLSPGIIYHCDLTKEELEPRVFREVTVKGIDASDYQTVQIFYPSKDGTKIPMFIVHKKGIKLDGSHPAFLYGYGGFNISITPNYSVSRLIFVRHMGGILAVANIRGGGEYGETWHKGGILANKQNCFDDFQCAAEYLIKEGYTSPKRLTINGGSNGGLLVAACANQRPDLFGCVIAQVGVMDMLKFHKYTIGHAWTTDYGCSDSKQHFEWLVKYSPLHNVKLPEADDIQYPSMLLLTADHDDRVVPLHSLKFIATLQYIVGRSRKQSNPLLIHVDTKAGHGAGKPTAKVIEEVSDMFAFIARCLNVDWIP
Description: Inhibition of PREP (unknown origin) using AMC substrate by fluorometric assay

The target of assay [4] is Dipeptidyl peptidase 4 (Homo sapiens, UniProt P27487). Kind of assay: Inhibition of DPP4 (unknown origin) using AMC substrate by fluorometric assay.

In general, IC50 refers to the concentration that gives 50% inhibition. A lower IC50 goes with greater potency in that assay. Broadly, the inhibition is how much of the control response was suppressed. A low value points to a response near the control.

Each structure is given as a SMILES string. Where only a bound is given, the exact number is not on record here.

Dipeptidyl peptidase 4, sequence (P27487 whole entry): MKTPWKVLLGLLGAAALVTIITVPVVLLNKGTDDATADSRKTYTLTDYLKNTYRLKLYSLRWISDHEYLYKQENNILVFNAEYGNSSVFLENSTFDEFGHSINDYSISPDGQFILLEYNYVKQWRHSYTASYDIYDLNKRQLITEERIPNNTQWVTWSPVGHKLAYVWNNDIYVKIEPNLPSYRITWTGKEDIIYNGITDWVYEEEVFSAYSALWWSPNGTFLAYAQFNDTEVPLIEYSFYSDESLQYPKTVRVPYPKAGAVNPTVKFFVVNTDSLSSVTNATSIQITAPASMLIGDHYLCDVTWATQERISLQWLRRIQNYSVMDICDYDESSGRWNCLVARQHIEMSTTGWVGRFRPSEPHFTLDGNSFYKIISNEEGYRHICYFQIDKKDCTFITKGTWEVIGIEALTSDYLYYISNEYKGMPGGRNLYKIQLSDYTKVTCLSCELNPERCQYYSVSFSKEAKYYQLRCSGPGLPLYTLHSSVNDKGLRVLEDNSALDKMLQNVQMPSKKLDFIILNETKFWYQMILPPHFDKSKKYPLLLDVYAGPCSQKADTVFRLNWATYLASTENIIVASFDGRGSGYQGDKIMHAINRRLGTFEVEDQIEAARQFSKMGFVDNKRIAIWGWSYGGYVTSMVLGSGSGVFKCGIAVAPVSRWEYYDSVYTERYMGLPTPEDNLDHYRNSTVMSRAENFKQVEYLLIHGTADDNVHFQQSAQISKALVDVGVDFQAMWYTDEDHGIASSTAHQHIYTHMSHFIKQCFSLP

Regarding `COc1ccc(-c2nc(C(=O)NCC(=O)N3CC(F)(F)C[C@H]3C#N)cs2)cc1`, the values for the IC50 in assay [1] and in assay [3] were 214 nM and 1180 nM, respectively. This compound also yielded an inhibition in assay [2] of 76.5%.
For the compound `N#C[C@@H]1CC(F)(F)CN1C(=O)CNC(=O)c1csc(CSc2ccc(C(F)(F)F)cc2)n1`, the IC50 in assay [1] was 11 nM; in assay [4] it was over 100000 nM.
On the same counts, the results for `N#C[C@@H]1CC(F)(F)CN1C(=O)CNC(=O)c1csc(CS(=O)(=O)c2ccc(C(F)(F)F)cc2)n1` are 5 nM and over 100000 nM.
In the case of `N#C[C@@H]1CC(F)(F)CN1C(=O)CNC(=O)c1csc(-c2ccc3occc3c2)n1`, the IC50 in assay [1] was determined as 446 nM; in assay [3], 10000 nM. The same compound yielded an inhibition in assay [2] of 83.4%.
On the same counts, the results for `N#C[C@@H]1CC(F)(F)CN1C(=O)CNC(=O)c1coc(-c2ccc(Cl)cc2)n1` are 93 nM, 4000 nM and 88.7%.
Turning to `N#C[C@@H]1CC(F)(F)CN1C(=O)CNC(=O)c1csc(Cc2ccc(Br)cc2)n1`, the IC50 is 16 nM in assay [1] and over 100000 nM in assay [4]. Further, in assay [2], the inhibition is 100%.
Take `N#C[C@@H]1CC(F)(F)CN1C(=O)CNC(=O)c1csc(COc2ccc(Cl)c(Cl)c2)n1`: the IC50 in assay [1] is 35 nM; in assay [4], over 100000 nM.
On to `N#C[C@@H]1CC(F)(F)CN1C(=O)CNC(=O)c1csc(Cc2ccc(Cl)cc2)n1`, for which the IC50 in assay [1] is 21 nM; in assay [4], over 100000 nM. This compound returned an inhibition in assay [2] of 98.6%.
`N#C[C@@H]1CC(F)(F)CN1C(=O)CNC(=O)c1csc(-c2ccc(F)cc2)n1`: the IC50 in assay [1] worked out at 87 nM; in assay [3], 1600 nM. For the same compound, the inhibition in assay [2] turned out to be 90.5%.
Turning to `N#C[C@@H]1CC(F)(F)CN1C(=O)CNC(=O)c1csc(Cc2ccc(F)c(F)c2)n1`, the IC50 is 47 nM in assay [1] and over 100000 nM in assay [4]. In addition, in assay [2], the inhibition was 95.4%.
As to `N#C[C@@H]1CC(F)(F)CN1C(=O)CNC(=O)c1csc(CSc2ccc(Cl)c(Cl)c2)n1`, the IC50 in assay [1] is 119 nM; in assay [4] it was over 100000 nM.
Turning to `N#C[C@@H]1CC(F)(F)CN1C(=O)CNC(=O)c1csc(Cc2ccc(F)cc2Cl)n1`, the IC50 was 60 nM in assay [1] and over 100000 nM in assay [4]. For the same compound, the inhibition in assay [2] amounted to 95.9%.
On the same counts, the results for `N#C[C@@H]1CC(F)(F)CN1C(=O)CNC(=O)c1csc(Cc2ccc(OC(F)(F)F)cc2)n1` are 22 nM, over 100000 nM and 86.3%.
On the same counts, the results for `N#C[C@@H]1CC(F)(F)CN1C(=O)CNC(=O)c1csc(Cc2ccc(-c3ccc(Cl)cc3)cc2)n1` are 145 nM, over 100000 nM and 93.8%.
In the case of `N#C[C@@H]1CC(F)(F)CN1C(=O)CNC(=O)c1csc(Cc2ccccc2I)n1`, the IC50 in assay [1] was 78 nM; in assay [4] it was over 100000 nM. The compound also came in with an inhibition in assay [2] of 90.6%.
For `N#Cc1ccc(S(=O)(=O)Cc2nc(C(=O)NCC(=O)N3CC(F)(F)C[C@H]3C#N)cs2)cc1`, the IC50 was 9 nM in assay [1] and 76800 nM in assay [4].
For the compound `N#C[C@@H]1CC(F)(F)CN1C(=O)CNC(=O)c1csc(-c2ccc(-c3ccccc3)cc2)n1`, the IC50 was 414 nM in assay [1] and 10000 nM in assay [3]. This compound also displayed an inhibition in assay [2] of 84.8%.
`N#C[C@@H]1CC(F)(F)CN1C(=O)CNC(=O)c1csc(Cc2ccc(-n3cncn3)cc2)n1`: the IC50 in assay [1] worked out at 28 nM; in assay [4], 18700 nM. In assay [2], this compound yielded an inhibition of 98.3%.
On the same counts, the results for `CSc1ccc(Cc2nc(C(=O)NCC(=O)N3CC(F)(F)C[C@H]3C#N)cs2)cc1` are 25 nM, over 100000 nM and 99%.
Regarding `Cc1ccc(S(=O)(=O)Cc2nc(C(=O)NCC(=O)N3CC(F)(F)C[C@H]3C#N)cs2)cc1`, the IC50 is 20 nM in assay [1] and over 100000 nM in assay [4].
Turning to `N#C[C@@H]1CC(F)(F)CN1C(=O)CNC(=O)c1csc(Cc2ccc(-n3cccn3)cc2)n1`, the IC50 was 23 nM in assay [1] and over 100000 nM in assay [4]. The compound further came in with an inhibition in assay [2] of 98.8%.
On the same counts, the results for `N#Cc1ccc(-c2ccc(Cc3nc(C(=O)NCC(=O)N4CC(F)(F)C[C@H]4C#N)cs3)cc2)cc1` are 12 nM, over 100000 nM and 98.7%.
`N#C[C@@H]1CC(F)(F)CN1C(=O)CNC(=O)c1csc(-c2ccc(Cl)cc2)n1` had an IC50 in assay [1] of 148 nM. Moreover, the inhibition in assay [2] came out at 86.7%.
On the same counts, the results for `N#C[C@@H]1CC(F)(F)CN1C(=O)CNC(=O)c1cccc(-c2ccc(Cl)cc2)n1` are 100 nM and 80.6%.
On the same counts, the results for `N#C[C@@H]1CC(F)(F)CN1C(=O)CNC(=O)c1cnc(-c2ccc(Cl)cc2)cn1` are 795 nM and 64%.
`N#C[C@@H]1CC(F)(F)CN1C(=O)CNC(=O)c1csc(Cc2ccccc2-c2ccc3ccccc3c2)n1`: the IC50 in assay [1] was 4 nM; in assay [4], over 100000 nM. This compound also gave an inhibition in assay [2] of 99.3%.
Consider `N#C[C@@H]1CC(F)(F)CN1C(=O)CNC(=O)c1csc(Cc2ccc(Cl)cc2Cl)n1`, for which the IC50 is 1 nM in assay [1] and over 100000 nM in assay [4]. Also, the inhibition in assay [2] turned out to be 97.2%.
On the same counts, the results for `COc1ccc(Cc2nc(C(=O)NCC(=O)N3CC(F)(F)C[C@H]3C#N)cs2)cc1` are 26 nM, over 100000 nM and 98%.
On the same counts, the results for `Cc1ccc(Cc2nc(C(=O)NCC(=O)N3CC(F)(F)C[C@H]3C#N)cs2)cc1` are 37 nM, 68800 nM and 97.8%.
For `N#Cc1ccc(SCc2nc(C(=O)NCC(=O)N3CC(F)(F)C[C@H]3C#N)cs2)cc1`, the values for the IC50 in assay [1], in assay [4] and in assay [3] were 24 nM, 44600 nM and 138 nM, respectively.
Turning to `N#Cc1ccc(OCc2nc(C(=O)NCC(=O)N3CC(F)(F)C[C@H]3C#N)cs2)cc1`, the IC50 is 7 nM in assay [1] and over 100000 nM in assay [4].
Turning to `N#C[C@@H]1CC(F)(F)CN1C(=O)CNC(=O)c1csc(Cc2ccccc2Br)n1`, the IC50 in assay [1] worked out at 50 nM; in assay [4], 200 nM. In assay [2], this compound gave an inhibition of 93.7%.
On the same counts, the results for `CS(=O)(=O)c1ccc(Cc2nc(C(=O)NCC(=O)N3CC(F)(F)C[C@H]3C#N)cs2)cc1` are 20 nM, 10100 nM and 98%.
The compound `Cn1cc(C(=O)NCC(=O)N2CC(F)(F)C[C@H]2C#N)cc1-c1ccc(Cl)cc1` yielded an IC50 in assay [1] of 104 nM. In assay [2], the inhibition came out at 85.3%.
As for `N#C[C@@H]1CC(F)(F)CN1C(=O)CNC(=O)c1csc(Cc2cccc(Br)c2)n1`, the results for the IC50 in assay [1] and in assay [4] were 35 nM and 52000 nM, respectively. Moreover, the inhibition in assay [2] came to 97.5%.
On the same counts, the results for `N#C[C@@H]1CC(F)(F)CN1C(=O)CNC(=O)c1csc(-c2ccc(Cl)cc2C(F)(F)F)n1` are 60 nM, over 100000 nM and 94.6%.
Consider `N#C[C@@H]1CC(F)(F)CN1C(=O)CNC(=O)c1csc(CS(=O)(=O)c2ccc(Cl)c(Cl)c2)n1`, for which the values for the IC50 in assay [1] and in assay [4] were 19 nM and over 100000 nM, respectively.
On the same counts, the results for `Cc1ccc(SCc2nc(C(=O)NCC(=O)N3CC(F)(F)C[C@H]3C#N)cs2)cc1` are 5 nM and over 100000 nM.
For the compound `N#C[C@@H]1CC(F)(F)CN1C(=O)CNC(=O)c1csc(Cc2cc(Cl)ccc2Cl)n1`, the IC50 in assay [1] was 55 nM; in assay [4], over 100000 nM. In addition, the inhibition in assay [2] was found to be 94.5%.
For `N#C[C@@H]1CC(F)(F)CN1C(=O)CNC(=O)c1c[nH]c(-c2ccc(Cl)cc2)c1`, the IC50 in assay [1] stood at 550 nM; in assay [3], 3620 nM. In assay [2], the inhibition turned out to be 57.8%.

(Values after ChEMBL document CHEMBL4706690, “Identification of BR102910 as a selective fibroblast activation protein (FAP) inhibitor” (Bioorg Med Chem Lett, 2021).)
